{"source": "patent US20210300926A1", "about": "“NEW BETA-LACTAMASE INHIBITORS TARGETING GRAM NEGATIVE BACTERIA” (priority 2017, published 2021)", "key": {"E. coli Top10": {"tested_on": "E. coli Top10", "assay": "MIC determination by microdilution, E. coli Top10 without β-lactamase (None)", "assay_type": "cell-based", "settings": "Escherichia coli; Cefamandole alone; E. coli Top10, β-lactamase None; read-out: MIC of β-lactam, inhibitor None", "from_the_text": "(§1) Plasmid and strain construction. For antibiotic susceptibility testing, the R-lactamase genes were cloned into the vector pTRC-99k, which is a derivative of pTRC99a (Pharmacia) obtained by replacing the β-lactamase resistance gene by a kanamycin resistance gene (Km, lacl, pTRC promoter, oriVcolEl; D. Mengin-Lecreulx, unpublished). Recombinant plasmids were introduced by electrotransformation into Escherichia coli Top10. For β-lactamase production, fragments of the β-lactamase genes encoding soluble enzymes, i.e. devoid of the signal peptides, were cloned into the vector pET-TEV generating translational fusions with a vector-encoded N-terminal 6×His Tag followed by a TEV cleavage site ([…]) (1).\n(§2) MIC determination. MICs of β-lactams were determined by the microdilution method in MH broth according to Clinical and Laboratory Standards Institute (CLSI) recommendations (12). Diazabicyclooctane were used at a fixed concentration of 15 μM (4 μg/ml for avibactam). Clavulanate was tested at 4 μg/ml. IPTG (500 μM) was added to the microdilution plates to induce production of the -lactamase. The precultures were grown in BHI broth containing IPTG (500 μM) and kanamycin (50 μg/ml) for plasmid maintenance. Reported MICs are the medians from five biological repeats obtained in two independent experiments."}, "[1]": {"tested_on": "E. coli Top10 producing TEM-1", "assay": "MIC determination by microdilution, E. coli Top10 producing TEM-1", "assay_type": "cell-based", "settings": "Escherichia coli, read-out: MIC of β-lactam, inhibitor None", "from_the_text": "as §1, §2"}}}
{"compound": "Cn1nnnc1SCC1=C(C(=O)O)N2C(=O)[C@@H](NC(=O)[C@H](O)c3ccccc3)[C@H]2SC1", "note": "[Cefamandole]", "values": [{"measurement": "MIC", "setting": "E. coli Top10", "result": 2, "unit": "µg/mL"}, {"measurement": "MIC", "setting": "[1]", "result": "> 2050", "unit": "µg/mL"}]}
